This note sets out measurements from patent EP1530968A1, “Galangin components for the maintenance of bone health and/or treatment, alleviaton and/or prevention of bone disorder” (N.V. Nutricia, priority 2003, dated 2005).

Marks after values point to notes of the source that are not given here.

Data set [1] deals with KS483 (mouse pre-osteoblastic cell line). Nature of the data set: Alkaline phosphatase (ALP) activity corrected for DNA in KS483 cells after 18 days exposure. Format: cell-based. Particulars: for ALP activity (mean ± SEM): 18 days, corrected for DNA, compared to control levels. The protocol: (§1) KS483 (mouse pre-osteoblastic cell line, Leids Universitair […] Centrum, Leiden, The Netherlands) was maintained in phenol red-free alpha-minimum essential medium (α-MEM) containing 10% non-charcoal-treated fetal bovine serum (FBS) and penicillin/streptomycin. Cells were seeded in 12-well plates at a density of 4.5x10^4 cells/well, and cultured in phenol red-free α-MEM supplemented with penicillin/streptomycin and 10% charcoal-treated FBS. Cells were exposed to vehicle (0.01 wt.% DMSO) , β-estradiol as a positive control (10^-8 M and 10^-9 M in 0.01 wt.% DMSO) or galangin (10^-5 M, 10^-6 M and 10^-7 M in 0.01 wt.% DMSO) for 18 days. From day 4 ascorbic acid (50μg/ml), and from day 11 β-glycerolphosphate (5mM) were added to the culture medium. Every 3-4 days the medium was changed. At day 18, cells were washed twice with ice-cold phosphate buffered saline (PBS), frozen immediately, and stored at -20°C for further use. The cells were lysed in 400μl SSC (15 mM sodium citrate and 150 mM sodium chloride) with 0.01% sodium dodecyl sulfate (SDS). Alkaline phosphatase (ALP) activity was determined kinetically in 25μl aliquots by colorimetric determination of the produced p-nitrophenol at 405 nm, using 6 mmol/L p-nitrophenylphosphate as a substrate at a 37°C and pH 10.5. To correct the ALP activity determination for cell quantity, the DNA content was measured in 100μl aliquots, using Hoechst 33258 and calibrated against a DNA standard (0.5-10μg/mL salmon sperm DNA). Fluorescence was measured at a wavelength of 355-460 nm. Calcium deposition (see Table 2) was determined using the cresolphthalein complexon method according to Henri et al, 1974 (Clinical Biochemistry. Principles and Techniques. Harper and Row, New York, USA. All chemicals were obtained from Sigma-Aldrich (Zwijndrecht, The Netherlands). TABLE 1

In a further data set the test system is estrogen receptor. The experiment in a line: ERE-Luciferase reporter assay in transiently transfected KS483 cells. Particulars: 48h. Format: cell-based, mouse. The protocol: (§2) Mouse pre-osteoblastic cell line KS483 was maintained in phenol red-free α-MEM containing 10% non-charcoal-treated FBS and penicillin/streptomycin. Cells were seeded in 24-well plates at a density of 1.6x10^4 cells/well, and cultured in phenol red-free α-MEM supplemented with penicillin/streptomycin and 10% charcoal-treated FBS. After 24 hours, cells were transiently transfected with 0.25 µg luciferase reporter (see below) using a lipid-based FuGENE 6 transfection reagent according to the manufacturer's recommendations (Roche, Almere, Netherlands). Cells were transfected with luciferase reporter, i.e. either estrogen-receptor-responsive element (ERE-Luciferase) or BMP-receptor-responsive element (BRE-Luciferas), hereinafter jointly referred to as luciferase reporter. Transfection efficiency was measured by co-transfection of 25 ng of SV40-Renilla control vector.. The transfection medium was changed after 18 hours into new α-MEM, containing penicillin/streptomycin and 10% charcoal-treated FBS. […] After 48h, cells were washed twice with PBS and frozen at -20°C. Luciferase activity was determined by measuring bioluminescence. Luciferase activity was expressed as fold induction ± SEM, which was corrected for transfection efficiency using sv40-renilla luciferase activity. The measured luciferase activity is indicative for the extent of stimulation of the estrogen receptor or BMP receptor by the test component. Subsequently the ratio ERE stimulation/BRE stimulation (ERE/BRE ratio) was determined, which is indicative for the estrogenic effects of the test component (Table 3).

A further data set relates to BMP receptor. The experiment in a line: BRE-Luciferase reporter assay in transiently transfected KS483 cells. The format is cell-based, mouse. Particulars: 48h. The method, then:
as §2

In data set [2] the test system is estrogen receptor (ERE) and BMP receptor (BRE). The experiment in a line: Ratio ERE stimulation/BRE stimulation (ERE/BRE ratio) in KS483 cells. Format: cell-based, mouse. Particulars: for ERE/BRE: ratio ERE stimulation/BRE stimulation. The method, then: as §2
The next data set has as its system SAMP6 mice. Nature of the data set: Bone mineral density by DXA in senescence accelerated mice prone for osteoporosis (SAMP6). The format is in vivo. Particulars: for BMD-LS change ( BMDLS) after 10 weeks of treatment / Bone mineral density of the lumbar spine (BMD-LS): female SAMP6 mice, E subcutaneous implant; for BMD-LS change ( BMDLS) after 10 weeks of treatment: age 22 to 32 weeks. From the text: (§3) Senescence accelerated mice prone for osteoporosis (SAMP6) and senescence accelerated resistant mice (SAMR) were obtained from Kyoto University, Kyoto, Japan. Mice were bred and kept under specific pathogen free conditions at the Center for small experimental animals in Wageningen. Procedures were approved by the external independent ethical committee for animal care and use (Zeist, The Netherlands). Female SAMP6 mice were randomized on the basis of body weight at the age 20 weeks and divided in 5 groups. […] The galangin was obtained from ICC, Sommerville, NJ, USA. The mice were treated from the age of 22 weeks to the age of 32 weeks. Animals were housed in pairs at 21°C with a 12-hour light/dark cycle in a room without male mice. Until the age of 22 weeks, animals were fed a complete rodent diet, free of flavonoids and isoflavones (RMH-B, Hope Farms, Woerden, The Netherlands). From 22 to 32 weeks of age, animals were fed diets composed according to the RDA of mice (Nutrient requirements of mice, National Academic press, Wahington, USA,1995) and demineralized water. Composition of all diets was identical, except for their galangin contents. All diets and water were supplied ad libitum. Food and water intake and body weight (BW) was registered weekly. Animals were checked daily for abnormal behavior and appearance. […] Implants were replaced after 6 weeks.
(§4) At the age of 22, 25, 28 and 32 weeks, bone mineral density (BMD) and body composition was determined with the aid of Dual energy X-ray absorptiometry (DXA) (Piximus, Lunar Corp, Madison, WI, USA) using the total body mode. Mice were anaesthetized with halothane and front and hind legs were extended. Bone mineral density of the lumbar spine (BMDLS) and the femur (BMDF) were determined within pre-defined regions of interest. Total body fat percentage was determined using the total body mode.

Data set [3] can be described thus: Body weight, fat percentage, food and water intake and uterus weight in SAMP6 mice. Format: in vivo.
Excerpt: as §3, §4

In data set [4] the test system is KS483 (mouse pre-osteoblastic cell line). Nature of the data set: Calcium deposition in KS483 cells (cresolphthalein complexon method). The format is cell-based. Particulars: for Fold increase of calcium (mean ± SEM): 18 days, compared to control levels. The protocol: as §1
Where [5] appears, read: age 22 weeks (before start of the intervention), galangin 0.4 mg per 100 g feed.
[6] abbreviates: age 25 weeks, treated from 22 weeks, galangin 0.4 mg per 100 g feed.
Where [7] appears, read: age 28 weeks, treated from 22 weeks, galangin 0.4 mg per 100 g feed.
Setting [8] is: age 32 weeks, treated from 22 weeks, galangin 0.4 mg per 100 g feed.
[9] abbreviates: from 25 weeks of age onwards, subcutaneous implant, intact SAMP6-mice.
Setting [10] is: compared with control group, SAMP6 mice, galangin throughout the study, E from 25 weeks of age onwards.

For the molecule `C[C@]12CC[C@@H]3c4ccc(O)cc4CC[C@H]3[C@@H]1CC[C@@H]2O` [β-E, 17 β-estradiol], the “ALP activity (mean ± SEM)” value is given as 2.6 ± 0.129^a fold induction in data set [1] (10^-8M) and 2.5 ± 0.184^a fold induction in data set [1] (10^-9M). The ERE in the data set with estrogen receptor (10^-8M) is reported as 9.0 fold induction; with estrogen receptor (10^-9M) it was 15.8 fold induction; in the data set with estrogen receptor (10^-10M), 20.2 fold induction. The values for the BRE in the data set on BMP receptor (10^-8M), in the data set with BMP receptor (10^-9M) and in the data set on BMP receptor (10^-10M) were 1.0 fold induction, 1.6 fold induction and 1.0 fold induction, respectively. In addition, the ERE/BRE is given as 8.6 in data set [2] (10^-8M) and 19.4 in data set [2] (10^-10M). Moreover, in the data set on SAMP6 mice (galangin 0.4 mg per 100 g feed), the “BMD-LS change ( BMDLS) after 10 weeks of treatment” value is on record as “+23.4 ^a”. The “Bone mineral density of the lumbar spine (BMD-LS)” value with SAMP6 mice (setting [5]) is 0.0700 g/cm^2; in the data set on SAMP6 mice (setting [6]) it was 0.0774 g/cm^2; in the data set on SAMP6 mice (setting [7]), 0.08315 g/cm^2; with SAMP6 mice (setting [8]), 0.0868 ^a g/cm^2. In addition, in the data set on SAMP6 mice (setting [9]), the BMD-F entry was “significantly higher”. For the same molecule, the BMD-LS entry in the data set with SAMP6 mice (setting [9]) is “significantly higher”. For the same molecule, the Uterus weight entry in data set [3] (at 32 weeks of age, compared with control group, SAMP6 mice) is listed as “significantly higher”. Besides, the body weight result in data set [3] (setting [10]) is recorded as “significantly lower”. In addition, the fat percentage entry in data set [3] (setting [10]) was “significantly lower”. The “food and water intake” value in data set [3] (setting [10]) is on record as “significantly lower”.

Take `O=c1c(O)c(-c2ccc(O)cc2)oc2cc(O)cc(O)c12` [K, kaemferol]: the results for the BRE in the data set with BMP receptor (10^-5M), in the data set on BMP receptor (10^-6M) and in the data set on BMP receptor (10^-7M) were 2.4 fold induction, 1.4 fold induction and 1.1 fold induction, respectively.

For the molecule `O=c1c(O)c(-c2ccc(O)c(O)c2)oc2cc(O)cc(O)c12` [Q, quercetin], the values for the ERE in the data set with estrogen receptor (10^-5M), with estrogen receptor (10^-6M) and in the data set on estrogen receptor (10^-7M) were 7.9 fold induction, 1.5 fold induction and 1.4 fold induction, respectively. In addition, the BRE was 1.6 fold induction in the data set with BMP receptor (10^-5M), 1.0 fold induction in the data set with BMP receptor (10^-6M) and 0.9 fold induction with BMP receptor (10^-7M). In addition, the ERE/BRE is 5.0 in data set [2] (10^-5M), 1.6 in data set [2] (10^-6M) and 1.6 in data set [2] (10^-7M).

As for `O=c1c(O)c(-c2ccccc2)oc2cc(O)cc(O)c12` [Gal, 3,5,7-trihydroxyflavone], the figures for the “ALP activity (mean ± SEM)” value in data set [1] (10^-5M), in data set [1] (10^-6M) and in data set [1] (10^-7M) were 3.7 ± 0.152^a fold induction, 1.4 ± 0.055^a fold induction and 1.1 ± 0.071 fold induction, respectively. Further, the ALP activity result in data set [1] (result in words) is “significantly increased”. Besides, the “Fold increase of calcium (mean ± SEM)” value in data set [4] (10^-5M) is given as 2.3 ± 0.160^a fold induction; in data set [4] (10^-6M) it was 1.2 ± 0.132 fold induction; in data set [4] (10^-7M) it was 1.3 ± 0.038 fold induction. Besides, in data set [4] (after treatment, result in words), the Calcium deposition entry is listed as “significantly increased”. For the same molecule, the ERE in the data set on estrogen receptor (10^-5M) is recorded as 3.8 fold induction; with estrogen receptor (10^-6M) it was 1.0 fold induction; with estrogen receptor (10^-7M), 0.9 fold induction. Moreover, the BRE with BMP receptor (10^-5M) worked out at 2.0 fold induction; with BMP receptor (10^-6M), 0.9 fold induction; in the data set with BMP receptor (10^-7M), 0.9 fold induction. Further, the ERE/BRE came out at 2.0 in data set [2] (10^-5M), 1.2 in data set [2] (10^-6M) and 1.1 in data set [2] (10^-7M). Besides, in data set [2] (galangin ratio as share of the ratio of kaempherol and quercitin), the “ratio ERE/BRE relative to kaempherol and quercitin” value is reported as “less than 50%”. Besides, the ERE/BRE ratio entry in data set [2] (result in words, galangin as compared to kaempherol and quercetin) is “low”. In the data set on SAMP6 mice (0.04 mg galangin/100 g food (so in the source), SAMP6 mice), the “loss of BMD-LS during the 10-week intervention period compared with controls” value was “significantly lower”. Further, the “% inhibition compared to SAMPC” value in the data set on SAMP6 mice (BMD-LS change after 10 weeks of treatment, galangin 0.4 mg per 100 g feed, SAMP6 mice) was determined as 40%. In the data set on SAMP6 mice (at 32 weeks, 0.4 mg galangin/100 g feed, SAMP6 mice), the “BMD-LS compared with controls” value is reported as “significantly higher”. Further, the “BMD-LS change ( BMDLS) after 10 weeks of treatment” value in the data set on SAMP6 mice (galangin 0.4 mg per 100 g feed) was -14.1 ^a. Further, the “Bone mineral density of the lumbar spine (BMD-LS)” value is listed as 0.0691 g/cm^2 in the data set on SAMP6 mice (setting [5]), 0.0658 g/cm^2 in the data set with SAMP6 mice (setting [6]), 0.0621 g/cm^2 with SAMP6 mice (setting [7]) and 0.0601 ^a g/cm^2 with SAMP6 mice (setting [8]). In addition, the fat percentage entry in data set [3] (mouse, in vivo) was “No statistical differences”. Further, the “food and water intake” value in data set [3] (mouse, in vivo) is recorded as “No statistical differences”.
